# Laboratory results taken from USRE38132E1, “Phenylpyrrolidines, phenylimidazolidines,3-phenyl-1,3-oxizolidines and 3-phenyl-1,3-thiazolidines and their use in the treatment of inflammatory disease” (Boehringer Ingelheim Pharmaceuticals, Inc., priority 1997, dated 2003).
# Read-outs that look alike come from different tables or passages of the source.
# Assays:
# [1] = tested on: SKW3 cells
# [2] = tested on: cell bound fibronectin receptor (VLA4) with fibronectin, SKW3 cells; experiment: Inhibition of SKW3 cell binding to fibronectin (selectivity counter-assay); type: cell-based, human
# Summary of the method: (§1)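 Compound-treated, PMA-stimulated human T-cell line SKW3 (50 μg/mL PMA final) allowed to adhere for 2 h at 37° C to wells coated with sICAM-1 at 40 μg/mL or fibronectin at 100 μg/mL. After gentle RPMI wash, 50% inhibition concentration or range reported in μM.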
# [3] = biological target: T1, interaction of ICAM-1 with the Leukointegrin CD18/CD11a (LFA-1) (Homo sapiens, UniProt P05107+P20701); experiment: Assay to determine inhibition of LFA-1 binding to ICAM-1 (immunopurified LFA-1 on plate-bound sICAM-1, ELISA readout)
# T1 construct: endogenous in cells; sICAM-1: made in house, secreted from transfected CHO DUX cells
# [4] = tested on: human MLR, peripheral blood mononuclear cells; experiment: Inhibition of the mixed lymphocyte reaction (MLR), tritiated thymidine uptake; type: cell-based; design: key: Data are reported as “+” or “−” at a given concentration (in μM); Data are reported as “+” or “−” at a given concentration (in μM)
# Procedure: Assay to Determine Inhibition the Mixed Lymphocyte Reaction
# As discussed above, ICAM-1 is necessary for effective cellular interactions during an immune response mediated through LFA-1-dependent cell adhesion. When lymphocytes from two unrelated individuals are cultured together, blast transformation and cell proliferation of the lymphocytes are observed. This response is known as a mixed lymphocyte reaction (MLR) and is analogous to the response of lymphocytes to the 10 addition of antigens or mitogens (Immunology: The Science of Self-Nonself Discrimination; Klein, J., Ed.; John Wiley & Sons: NY, 1982, pp 453-458).
# This assay protocol is used to determine the effect of a test compound on the human MLR.
# Description of Assay Protocol:
# Peripheral blood is obtained from normal, healthy donors by venipuncture. The blood is collected in heparinized tubes and diluted 1:1 at room temperature with Puck's G (GIBCO) balanced salt solution (BSS). The blood mixture (20 mL) is layered over 15 mL of a Ficoll/Hypaque density gradient (Pharmacia, density=1.078, room temperature) and centrifuged at 1000·g for 20 minutes. The interface is then collected and washed 3 times in Puck's G. The cells are counted on a hemocytometer and resuspended in RPMI 1640 culture medium (GIBCO) containing 0.5% of gentamicin, 1 mM L-glutamine (GICO) and 5% heat inactivated (56° C., 30 min) human AB sera (Flow Laboratories) (hereafter referred to as RPMI-culture medium).
# Stimulator cells (cells that have been treated with irradiation so that they are unable to proliferate) from a separate donor are cultured with the responder cells at the same concentration. Test compound is added to wells at various concentrations. The total volume per culture is 0.2 mL. Controls include compound vehicle alone (DMSO), responder cells alone, and stimulator cells alone. The culture plates are incubated at 37° C. in a 5% CO2-humidified air atmosphere for 5 days.
# The wells are pulsed with 0.5 μCi of tritiated thymidine (^3HT) (New England Nuclear) for the last 18 h of culture. In some cases a two-way MLR can be performed. The protocol is the same except that the second donor's cells are not inactivated by irradiation.
# The cells are harvested onto glass fiber filters using an automated multiple sample harvester (Skatron, Norway), and rinsed with water and methanol. The filters are oven dried and counted in Aquasol in a Beckman (LS-3801) liquid scintillation counter.
# Data are reported as “+” or “−” at a given concentration (in μM).
# [5] = tested on: LFA-1 dependent aggregation of JY cells; experiment: JY cell homotypic aggregation assay (PMA-stimulated); type: cell-based, human
# Summary of the method: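 Homotypic aggregation of EBV-transformed JY cells, stimulated by phorbol myristate acetate ([…]), scored visually over time in compound presence at 2·10^5 cells/well in serum-supplemented RPMI 1640. Result given as μM concentration or range inhibiting binding by 50%.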
# [6] = tested on: cell bound form of LFA-1 (CD18, CD11a) with ICAM-1, SKW3 cells; experiment: Inhibition of SKW3 cell binding to ICAM-1 (PMA-stimulated); type: cell-based, human; conditions: Homo sapiens, read-out: Assay to Detect SKW3 Cells Binding to ICAM IC50
# Summary of the method: as §1
# [7] = values marked c: no inhibition observed up to highest dose
# [8] = values marked e approximated from incomplete dose-response curve
# [9] = SKW3, values marked c: no inhibition observed up to highest dose
# [10] = No inh = no inhibition observed up to highest dose, exact quantification not always possible due to intrinsic toxicity
# T1 sequence (P20701 26-1170): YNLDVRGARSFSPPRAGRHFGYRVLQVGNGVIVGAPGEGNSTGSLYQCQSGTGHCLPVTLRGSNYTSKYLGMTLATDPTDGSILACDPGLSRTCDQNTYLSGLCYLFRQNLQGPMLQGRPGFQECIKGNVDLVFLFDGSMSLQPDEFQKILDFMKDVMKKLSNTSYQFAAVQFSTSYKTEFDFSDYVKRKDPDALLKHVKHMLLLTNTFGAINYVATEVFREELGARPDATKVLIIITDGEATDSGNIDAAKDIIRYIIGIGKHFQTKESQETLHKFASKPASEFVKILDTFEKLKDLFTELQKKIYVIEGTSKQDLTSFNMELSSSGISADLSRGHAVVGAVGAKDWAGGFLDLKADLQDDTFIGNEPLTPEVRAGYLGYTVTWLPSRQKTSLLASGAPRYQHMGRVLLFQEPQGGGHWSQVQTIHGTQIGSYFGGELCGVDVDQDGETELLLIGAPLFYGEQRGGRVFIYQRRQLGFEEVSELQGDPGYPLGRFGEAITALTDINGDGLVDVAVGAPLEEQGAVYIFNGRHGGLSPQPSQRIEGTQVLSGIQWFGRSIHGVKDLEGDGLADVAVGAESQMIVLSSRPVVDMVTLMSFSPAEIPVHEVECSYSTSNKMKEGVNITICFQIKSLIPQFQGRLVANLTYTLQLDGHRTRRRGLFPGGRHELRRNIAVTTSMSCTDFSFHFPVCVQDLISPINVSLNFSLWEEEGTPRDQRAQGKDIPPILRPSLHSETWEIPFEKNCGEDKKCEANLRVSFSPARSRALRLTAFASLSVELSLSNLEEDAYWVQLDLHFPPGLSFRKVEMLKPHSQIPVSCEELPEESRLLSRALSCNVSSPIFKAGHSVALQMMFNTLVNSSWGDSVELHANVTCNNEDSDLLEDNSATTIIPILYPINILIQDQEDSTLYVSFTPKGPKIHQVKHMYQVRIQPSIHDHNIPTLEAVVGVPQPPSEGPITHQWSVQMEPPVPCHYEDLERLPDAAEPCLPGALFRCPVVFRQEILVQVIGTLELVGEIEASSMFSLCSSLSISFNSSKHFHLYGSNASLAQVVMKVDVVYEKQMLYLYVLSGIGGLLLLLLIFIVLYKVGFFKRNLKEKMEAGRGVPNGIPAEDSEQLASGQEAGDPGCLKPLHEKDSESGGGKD
# T1 sequence (P05107 23-769): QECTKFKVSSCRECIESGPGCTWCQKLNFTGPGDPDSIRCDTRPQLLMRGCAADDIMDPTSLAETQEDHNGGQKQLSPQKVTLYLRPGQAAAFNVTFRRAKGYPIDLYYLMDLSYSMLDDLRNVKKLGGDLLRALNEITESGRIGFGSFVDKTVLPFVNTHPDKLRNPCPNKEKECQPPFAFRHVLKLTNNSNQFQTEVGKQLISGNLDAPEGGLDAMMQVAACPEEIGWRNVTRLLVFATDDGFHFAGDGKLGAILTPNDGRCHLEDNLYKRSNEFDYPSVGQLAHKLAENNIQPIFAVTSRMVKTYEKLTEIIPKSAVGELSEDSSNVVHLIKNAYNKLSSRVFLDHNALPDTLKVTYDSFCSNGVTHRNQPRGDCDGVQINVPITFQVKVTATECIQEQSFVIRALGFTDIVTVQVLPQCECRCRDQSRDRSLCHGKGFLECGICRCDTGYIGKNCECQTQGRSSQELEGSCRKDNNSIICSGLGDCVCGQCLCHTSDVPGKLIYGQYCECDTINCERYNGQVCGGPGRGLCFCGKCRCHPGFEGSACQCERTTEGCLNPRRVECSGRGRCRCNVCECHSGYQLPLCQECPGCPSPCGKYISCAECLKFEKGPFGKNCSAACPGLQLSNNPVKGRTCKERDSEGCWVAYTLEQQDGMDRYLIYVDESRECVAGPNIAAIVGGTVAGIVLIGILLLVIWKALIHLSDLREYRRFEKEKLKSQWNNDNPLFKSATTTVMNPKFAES
Structure (SMILES),Cellular Toxicity Assay MTT LD50 [1] [µM],"Assay to Detect SKW3 Cells Binding to FIBRONECTIN IC50 [2, 7]","Kd [3, 8] [nM]",Mixed Lymphocyte Reaction MLR +/− ([4]; at 25 μM),IC50 ([5]; Homo sapiens) [nM],"IC50 [6, 9] [nM]","IC50 ([2]; Homo sapiens, SKW3, No inh = no inhibition observed up to highest dose, exact quantification not always possible due to intrinsic toxicity, read-out: Assay to Detect SKW3 Cells Binding to FIBRONECTIN IC50) [nM]",Kd [3] [nM],Mixed Lymphocyte Reaction MLR +/− ([4]; at 50 μM),IC50 [5] [nM],IC50 ([6]; SKW3) [nM],"Assay to Detect SKW3 Cells Binding to FIBRONECTIN IC50 [2, 10]",melting point [°C]
CC1(Cc2ccc(Br)cc2)C(=O)N(c2cc(Cl)cc(Cl)c2)C(=O)N1C1CC1 (stereo not shown) [Example 169],160 to 230,No inh^c,50,+(25),1500,12000 to 25000,–,–,–,–,–,–,–
CN1C(=O)N(c2cc(Cl)cc(Cl)c2)C(=O)C1Cc1ccc(Br)cc1 (stereo not shown) [Example 92],63 to 125,No inh^c,120,+(25),3100,13000 to 25000,–,–,–,–,–,–,–
C[C@]1(Cc2ccc(C(=O)c3ccccc3)cc2)NC(=O)N(c2cc(Cl)cc(Cl)c2)C1=O [Example 215],100 to 200,–,–,–,–,–,> 100000,200,+(50),3100,50000 to 100000,–,–
CN1C(=O)N(c2cc(Cl)cc(Cl)c2)C(=O)C1(C)Cc1ccc(F)cc1 (stereo not shown) [Example 146],100,No inh^c,130,–,400,13000 to 25000,–,–,+(50),–,–,–,–
CN1C(=O)N(c2cc(Cl)cc(Cl)c2)C(=O)[C@@]1(C)Cc1ccc(-c2ccccc2)cc1 [Example 182],200 to 400,No inh^c,50,+(25),20,3000 to 6000,–,–,–,–,–,–,–
C[C@@]1(Cc2ccc(Br)cc2)C(=O)N(c2cc(Cl)cc(Cl)c2)C(=O)N1Cc1cccc(C(=O)O)c1 [Example 229],50 to 100,–,–,–,3100,–,–,300,+(50),–,6000 to 13000,No inh^c,–
CC1(Cc2ccc(C(F)(F)F)c(F)c2F)NC(=O)N(c2cc(Cl)cc(Cl)c2)C1=O (stereo not shown) [Example 67],–,–,3540,–,–,–,–,–,–,–,–,–,163 to 164
CC1(Cc2ccccc2OC(F)(F)F)NC(=O)N(c2cc(Cl)cc(Cl)c2)C1=O (stereo not shown) [Example 66],–,–,2850,–,–,–,–,–,–,–,–,–,153 to 155
CN1C(=O)N(c2cc(Cl)cc(Cl)c2)C(=O)C1(C)Cc1ccc(C#N)cc1 (stereo not shown) [Example 151],>410,No inh^c,46,+(25),200,5000 to 10000,–,–,–,–,–,–,–
C[C@@]1(Cc2ccc(Br)cc2)C(=O)N(c2cc(Cl)cc(Cl)c2)C(=O)N1CCO [Example 225],50 to 100,–,–,+(25),200,–,–,630,–,–,3000 to 4000,No inh^c,–
CCCN1C(=O)N(c2cc(Cl)cc(Cl)c2)C(=O)[C@@]1(C)Cc1ccc(Br)cc1 [Example 98],>340,No inh^c,55,–,3000,5000 to 10000,–,–,+(50),–,–,–,–
CN1C(=O)N(c2cc(Cl)cc(Cl)c2)C(=O)C1(C)Cc1ccc([N+](=O)[O-])cc1 (stereo not shown) [Example 157],>390,No inh^c,37,+(25),400,5000 to 10000,–,–,–,–,–,–,–
